Experimental data from US20210024542A1 (Torcept Therapeutics, Inc., priority 2018, published 2021).
Like-named read-outs stand apart in the source and are kept apart here.

Columns and labels:
SNU-5 = assay: OncoPanel cell proliferation assay, SNU-5; format: cell-based, human; settings: for Relative cell count (%) Mean: SNU-5
Experimental: (§1) Cells were seeded into 384-well plates and incubated in a humidified atmosphere of 5% CO2 at 37° C. Compounds were added the day following cell seeding. At the same time, a time zero untreated cell plate was generated. After a 3-day incubation period, cells were fixed and stained to allow fluorescence imaging of nuclei. Compounds (1 mM stock solutions) were serially diluted in half-log steps from the highest test concentration ([…]), and assayed over 10 concentrations with a maximum assay concentration of 0.1% DMSO. Automated fluorescence microscopy was carried out using a Molecular Devices ImageXpress Micro XL high-content imager, and images were collected with a 4× objective. 16-bit TIFF images were acquired and analyzed with MetaXpress 5.1.0.41 software.
(§2) Cell proliferation was measured by the fluorescence intensity of an incorporated nuclear dye. The output is referred to as the relative cell count, where the measured nuclear intensity is transformed to percent of control (POC) using the following formula: […]
(§3) Cellular response parameters were calculated using nonlinear regression to a sigmoidal single-site dose response model:
(§4) Where y is a response measured at concentration x, A and B are the lower and upper limits of the response, C is the concentration at the response midpoint (EC50), and D is the Hill Slope (Ref. 1).
GI50 is the concentration needed to reduce the observed growth by half (midway between the curve maximum and the time zero value). […] In rare instances, values <0 or >10 may be observed. […] Curve-fitting, calculations, and report generation was performed using a custom data reduction engine and MathIQ based software (AIM).

TF-1 = assay: OncoPanel cell proliferation assay, TF-1; format: cell-based, human; settings: for Relative cell count (%) Mean: TF-1
Experimental: as §1, with “Cells were grown in RPMI 1640, 10% FBS, 2 mM L-alanyl-L-glutamine, 1 mM Na pyruvate, or a special medium. Cells” for “Cells”
as §2, §3, §4
(§5) EC50 is the test compound concentration at the curve inflection point or half the effective response (parameter C of the fitted curve solution). GI50 is the concentration needed to reduce the observed growth by half (midway between the curve maximum and the time zero value). “Cell Count Activity Area” is an estimate of the integrated area above the curve (Barretina, et al. The Cancer Cell Line Encyclopedia enables predictive modelling of anticancer drug sensitivity. Nature 483: 603-607). […] In rare instances, values <0 or >10 may be observed. […] Curve-fitting, calculations, and report generation was performed using a custom data reduction engine and MathIQ based software (AIM).

U-138MG = assay: OncoPanel cell proliferation assay, U-138MG; format: cell-based, human
Experimental: as §1, with “Cells were grown in RPMI 1640, 10% FBS, 2 mM L-alanyl-L-glutamine, 1 mM Na pyruvate, or a special medium. Cells” for “Cells”
as §2, §3, §4, §5

AsPC-1 = assay: OncoPanel cell proliferation assay, AsPC-1; settings: for Relative cell count (%) Mean: AsPC-1
Experimental: (§6) Cells were seeded into 384-well plates and incubated in a humidified atmosphere of 5% CO2 at 37° C. Compounds were added the day following cell seeding. At the same time, a time zero untreated cell plate was generated. After a 3-day incubation period, cells were fixed and stained to allow fluorescence imaging of nuclei. Compounds (1 mM stock solutions) were serially diluted in half-log steps from the highest test concentration (1 micromol), and assayed over 10 concentrations with a maximum assay concentration of 0.1% DMSO. Automated fluorescence microscopy was carried out using a Molecular Devices ImageXpress Micro XL high-content imager, and images were collected with a 4× objective. 16-bit TIFF images were acquired and analyzed with MetaXpress 5.1.0.41 software.

OVCAR3 = assay: OncoPanel cell proliferation assay, OVCAR3; settings: for Relative cell count (%) Mean: OVCAR3
Experimental: as §6

SHP-77 = assay: OncoPanel cell proliferation assay, SHP-77; settings: for Relative cell count (%) Mean: SHP-77
Experimental: as §6

CO[C@H]1C[C@@H]2CC[C@@H](C)[C@@](O)(O2)C(=O)C(=O)N2CCCC[C@H]2C(=O)O[C@H]([C@H](C)C[C@@H]2C[C@@H]3C[C@H]2C[C@H]3O)CC(=O)[C@H](C)/C=C(\C)[C@@H](O)[C@@H](OC)C(=O)[C@H](C)C[C@H](C)/C=C/C=C/C=C/1C [Formula I, 37R-hydroxynorbornylrapamycin]
GI50 (SNU-5; Homo sapiens, 72 h, SNU-5, 3-day incubation, read-out: Cell Count GI50): 23.8 nM | IC50 (SNU-5; Homo sapiens, 72 h, SNU-5, 3-day incubation, read-out: Cell Count IC50): > 1000 nM | Cell Count Activity Area (SNU-5; SNU-5, scale 0-10): 2.14 | Relative cell count (%) Mean (SNU-5; 1.00E+00 microM): 62.8% | Relative cell count (%) Mean (SNU-5; 1.00E−01 microM): 65.7% | Relative cell count (%) Mean (SNU-5; 1.00E−02 microM): 73.2% | Relative cell count (%) Mean (SNU-5; 1.00E−03 microM): 84.5% | Relative cell count (%) Mean (SNU-5; 1.01E−04 microM): 95.3% | Relative cell count (%) Mean (SNU-5; 3.16E−01 microM): 64.0% | Relative cell count (%) Mean (SNU-5; 3.17E−02 microM): 65.8% | Relative cell count (%) Mean (SNU-5; 3.17E−03 microM): 77.6% | Relative cell count (%) Mean (SNU-5; 3.18E−04 microM): 91.2% | Relative cell count (%) Mean (SNU-5; 3.18E−05 microM): 96.3% | EC50 (TF-1; Homo sapiens, 72 h, TF-1, 3-day incubation, read-out: Cell Count EC50): > 1000 nM | GI50 (TF-1; Homo sapiens, 72 h, TF-1, 3-day incubation, read-out: Cell Count GI50): > 1000 nM | IC50 (TF-1; Homo sapiens, 72 h, TF-1, 3-day incubation, read-out: Cell Count IC50): > 1000 nM | Cell Count Activity Area (TF-1; TF-1, scale 0-10): 1.64 | Relative cell count (%) Mean (TF-1; 1.00E+00 microM): 80.6% | Relative cell count (%) Mean (TF-1; 1.00E−01 microM): 80.1% | Relative cell count (%) Mean (TF-1; 1.00E−02 microM): 81.1% | Relative cell count (%) Mean (TF-1; 1.00E−03 microM): 87.4% | Relative cell count (%) Mean (TF-1; 1.01E−04 microM): 97.8% | Relative cell count (%) Mean (TF-1; 3.16E−01 microM): 80.1% | Relative cell count (%) Mean (TF-1; 3.17E−02 microM): 81.3% | Relative cell count (%) Mean (TF-1; 3.17E−03 microM): 88.0% | Relative cell count (%) Mean (TF-1; 3.18E−04 microM): 88.0% | Relative cell count (%) Mean (TF-1; 3.18E−05 microM): 96.7% | EC50 (U-138MG; Homo sapiens, U138-MG, 72 h, U-138MG, 3-day incubation, read-out: Cell Count EC50): 0.0975 nM | GI50 (U-138MG; Homo sapiens, U138-MG, 72 h, U-138MG, 3-day incubation, read-out: Cell Count GI50): 0.54 nM | IC50 (U-138MG; Homo sapiens, U138-MG, 72 h, U-138MG, 3-day incubation, read-out: Cell Count IC50): > 1000 nM | EC50 (U-138MG; Homo sapiens, U138-MG, Table 4 summary, U-138 MG, Glioblastoma, read-out: EC50): 0.097 nM | Cell Count Activity Area (U-138MG; U-138MG, scale 0-10): 3.00 | Relative cell count (%) Mean (U-138MG; U-138MG, 1.00E+00 microM): 62.8% | Relative cell count (%) Mean (U-138MG; U-138MG, 1.00E−01 microM): 66.3% | Relative cell count (%) Mean (U-138MG; U-138MG, 1.00E−02 microM): 71.3% | Relative cell count (%) Mean (U-138MG; U-138MG, 1.00E−03 microM): 70.6% | Relative cell count (%) Mean (U-138MG; U-138MG, 1.01E−04 microM): 82.1% | Relative cell count (%) Mean (U-138MG; U-138MG, 3.16E−01 microM): 64.5% | Relative cell count (%) Mean (U-138MG; U-138MG, 3.17E−02 microM): 66.8% | Relative cell count (%) Mean (U-138MG; U-138MG, 3.17E−03 microM): 70.9% | Relative cell count (%) Mean (U-138MG; U-138MG, 3.18E−04 microM): 75.7% | Relative cell count (%) Mean (U-138MG; U-138MG, 3.18E−05 microM): 98.2% | Cell Count Activity Area (AsPC-1; AsPC-1, scale 0-10): 2.50 | Relative cell count (%) Mean (AsPC-1; 1.00E+00 microM): 64.8% | Relative cell count (%) Mean (AsPC-1; 1.00E−01 microM): 74.0% | Relative cell count (%) Mean (AsPC-1; 1.00E−02 microM): 68.9% | Relative cell count (%) Mean (AsPC-1; 1.00E−03 microM): 81.7% | Relative cell count (%) Mean (AsPC-1; 1.01E−04 microM): 89.6% | Relative cell count (%) Mean (AsPC-1; 3.16E−01 microM): 67.9% | Relative cell count (%) Mean (AsPC-1; 3.17E−02 microM): 74.7% | Relative cell count (%) Mean (AsPC-1; 3.17E−03 microM): 77.8% | Relative cell count (%) Mean (AsPC-1; 3.18E−04 microM): 94.5% | Relative cell count (%) Mean (AsPC-1; 3.18E−05 microM): 99.5% | EC50 (AsPC-1; Homo sapiens, ASPC1): 0.52 nM | EC50 (AsPC-1; Homo sapiens, ASPC1, 72 h, read-out: Cell Count EC50): 0.519 nM | GI50 (AsPC-1; Homo sapiens, ASPC1, 72 h, read-out: Cell Count GI50): 8.07 nM | IC50 (AsPC-1; Homo sapiens, ASPC1, 72 h, read-out: Cell Count IC50): > 1000 nM | EC50 (OVCAR3; Homo sapiens): 650 nM | EC50 (OVCAR3; Homo sapiens, OVCAR-3, 72 h, read-out: Cell Count EC50): 646 nM | GI50 (OVCAR3; Homo sapiens, OVCAR-3, 72 h, read-out: Cell Count GI50): 65.8 nM | IC50 (OVCAR3; Homo sapiens, OVCAR-3, 72 h, read-out: Cell Count IC50): > 1000 nM | Cell Count Activity Area (OVCAR3; OVCAR3, scale 0-10): 2.43 | Relative cell count (%) Mean (OVCAR3; 1.00E+00 microM): 61.8% | Relative cell count (%) Mean (OVCAR3; 1.00E−01 microM): 72.8% | Relative cell count (%) Mean (OVCAR3; 1.00E−02 microM): 85.0% | Relative cell count (%) Mean (OVCAR3; 1.00E−03 microM): 90.2% | Relative cell count (%) Mean (OVCAR3; 1.01E−04 microM): 93.3% | Relative cell count (%) Mean (OVCAR3; 3.16E−01 microM): 61.7% | Relative cell count (%) Mean (OVCAR3; 3.17E−02 microM): 79.9% | Relative cell count (%) Mean (OVCAR3; 3.17E−03 microM): 85.2% | Relative cell count (%) Mean (OVCAR3; 3.18E−04 microM): 89.7% | Relative cell count (%) Mean (OVCAR3; 3.18E−05 microM): 106.9% | EC50 (SHP-77; Homo sapiens, SHP77, 72 h, read-out: Cell Count EC50): 309 nM | GI50 (SHP-77; Homo sapiens, SHP77, 72 h, read-out: Cell Count GI50): > 1000 nM | IC50 (SHP-77; Homo sapiens, SHP77, 72 h, read-out: Cell Count IC50): > 1000 nM | Cell Count Activity Area (SHP-77; SHP-77, scale 0-10): 1.18 | Relative cell count (%) Mean (SHP-77; 1.00E+00 microM): 71.6% | Relative cell count (%) Mean (SHP-77; 1.00E−01 microM): 83.4% | Relative cell count (%) Mean (SHP-77; 1.00E−02 microM): 94.0% | Relative cell count (%) Mean (SHP-77; 1.00E−03 microM): 96.5% | Relative cell count (%) Mean (SHP-77; 1.01E−04 microM): 98.0% | Relative cell count (%) Mean (SHP-77; 3.16E−01 microM): 75.9% | Relative cell count (%) Mean (SHP-77; 3.17E−02 microM): 84.9% | Relative cell count (%) Mean (SHP-77; 3.17E−03 microM): 89.5% | Relative cell count (%) Mean (SHP-77; 3.18E−04 microM): 101.7% | Relative cell count (%) Mean (SHP-77; 3.18E−05 microM): 99.1%
